Square brackets hold non-standard residues; d marks the D form. Peptide text beside a SMILES is read from it. pY = N[C@@H](Cc1ccc(OP(=O)(O)O)cc1)C(=O)O
Target: T1, SHP-2 N-SH2 domain (Homo sapiens, UniProt Q06124)
T1 sequence (Q06124 1-106): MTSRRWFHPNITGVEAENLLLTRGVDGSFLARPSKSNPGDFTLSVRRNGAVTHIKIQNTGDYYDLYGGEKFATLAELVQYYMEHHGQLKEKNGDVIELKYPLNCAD
Test: SPR competition assay against immobilized pYAQL peptide
Type: binding

## CC(C)C[C@H](NC(=O)[C@H](CCC(N)=O)NC(=O)[C@H](C)NC(=O)[C@H](Cc1ccc(OP(=O)(O)O)cc1)NC(=O)[C@H](CC(N)=O)NC(=O)[C@H](CC(C)C)NC(=O)[C@@H](N)CCCNC(=N)N)C(=O)N[C@@H](Cc1c[nH]c2ccccc12)C(=O)N[C@@H](Cc1c[nH]cn1)C(=O)N[C@@H](CCCNC(=N)N)C(N)=O [pYAQL] (H-RLN[pY]AQLWHR-NH2)
  IC50: 600 ± 100 nM

Reference: PMC3164524 (Biochemistry, 2011)
